# Assays:
# Experiment in all cases: microbe, parasite or virus in culture
# Assay type in all cases: cell-based, HIV-1
# [1] = system: NLRepRlucP373S recombinant wild type (WT) virus; conditions: Human immunodeficiency virus 1, MT2, read-out: WT EC50
# Experimental: (§1) Cells. MT-2 cells and 293T cells were obtained from the NIH AIDS Research and Reference Reagent Program. Cell lines were sub-cultured twice a week in either RPMI 1640 (MT-2) or DMEM (293T, HeLa) media supplemented with 10% heat inactivated fetal bovine serum (FBS), 100 units/mL of penicillin G and 100 μg/mL of streptomycin. The DMEM medium was additionally supplemented with 10 mM HEPES buffer, pH 7.55, 2 mM L-glutamine and 0.25 μg/mL of amphotericin B.
# (§2) Viruses. NLRepRluc virus contains the Renilla luciferase marker in place of the viral nef gene. The proviral plasmid pNLRepRluc was constructed at Bristol-Myers Squibb, starting from a proviral NL4-3 clone (B subtype) that was obtained from the NIH AIDS Research and Reference Reagent Program. The parental recombinant wild type (WT) virus (NLRepRlucP373S) was derived from NLRepRluc and contains the additional substitution of P373 for serine in Gag (within the SP1 spacer), the most common 373 variation in subtype B. Other recombinant viruses (A364V, V370A/ΔT371 and the “T3325 triple” (T332S/V362I+HIV-1 protease R41G)) were generated by site-directed mutagenesis of plasmid pNLRepRlucP373S to introduce those amino acid substitutions in Gag and protease. Recombinant virus DNA was then used to generate virus stocks by transfection of 293T cells (Lipofectamine PLUS kit, Invitrogen). Titers of virus stocks were determined using a luciferase assay (Dual-Luciferase® Reporter Assay System, Promega, Milwaukee, Wis., USA) endpoint.
# (§3) Multiple cycle drug susceptibility assay. Pellets of MT-2 cells were infected with NLRepRlucP373S Gag site-directed viruses, where initial inocula of the reporter strains were normalized using equivalent endpoint luciferase activity signals. Such cell-virus mixtures were resuspended in medium, incubated for 1-hour at 37° C./CO2, and added to compound containing 96-well plates at a final cell density of 10,000 cells per well. The test compounds were 3-fold serially diluted in 100% DMSO, and assayed at a final DMSO concentration of 1%. After 4-5 day incubation at 37° C./CO2, virus yields were determined by Renilla luciferase activity (Dual-Luciferase® Reporter Assay System, Promega). The endpoint luminescence was detected on a Wallac Trilux (PerkinElmer).
# (§4) The 50% inhibitory concentrations (EC50S) were calculated by using the exponential form of the median effect equation where Percent Inhibition=1/[1+(EC50/drug conc.^m], where m is a parameter that reflects the slope of the concentration-response curve. Background was taken as the residual signal observed upon inhibition at the highest concentration of a control protease inhibitor, NFV (3 μM).
# as §4, with “The 90%” for “The 50%”, “concentrations (EC90S)” for “concentrations (EC50S)”, “where ECF=[(F/(100−F)]^1/H·EC50,” for “where Percent Inhibition=1/[1+(EC50/drug conc.^m],”, “where H” for “where m”
# [2] = system: T332S/V362I/Pr R41G virus; conditions: Human immunodeficiency virus 1, MT2, read-out: T332S/V362I/pr41G EC50
# Experimental: as §1, §2, §3
# T332sN362I/Pr R41G (N14.3, B Clade) virus′ was obtained as follows: Selection for resistance of HIV-1 strain […] virus with the HIV maturation inhibitor (MI) compound
# At passage 8 virus was harvested and sequenced.
# (§5) All three recombinant viruses were used as described above in the HIV cell culture assay for the NL4-3 virus.
# [3] = system: A364V site directed mutant virus; conditions: Human immunodeficiency virus 1, MT2, read-out: A364V EC50
# Experimental: as §1, §2, §3
# (§6) HIV-1 NL4-3 expressing Renilla luciferase gene was converted to the gag V370A/ΔT371 virus by site directed mutagenesis. A364V is a site directed mutant.
# as §5
# gag V370A/ΔT371 virus = conditions: Human immunodeficiency virus 1, MT2, read-out: V370A/ΔT371 EC50
# Experimental: as §1, §2, §3, §6, §5
Structure (SMILES),EC50 [1] [nM],EC50 [2] [nM],EC50 [3] [nM],EC50 (gag V370A/ΔT371 virus) [nM]
C=C(C)[C@@H]1CC[C@]2(NCCN3CCS(=O)(=O)CC3)CC[C@]3(C)[C@H](CC[C@@H]4[C@@]5(C)CC=C(C6=CCC(COc7nnnn7C)(C(=O)O)CC6)C(C)(C)[C@@H]5CC[C@]43C)[C@@H]12 (some centres unmarked) [Example 13],2,7,24,7
"C=C(C)[C@@H]1CC[C@]2(NCCN3CCS(=O)(=O)CC3)CC[C@]3(C)[C@H](CC[C@@H]4[C@@]5(C)CC=C(C6=CCC(COc7nsc(=O)[nH]7)(C(=O)O)CC6)C(C)(C)[C@@H]5CC[C@]43C)[C@@H]12 (stereo partly drawn) [Example 14, 4-((1R,3aS,5aR,5bR,7aR,11aS,11bR,13aR,13bR)-3a-((2-(1,1-dioxidothiomorpholino)ethyl)amino)-5a,5b,8,8,11a-pentamethyl-1-(prop-1-en-2-yl)-2,3,3a,4,5,5a,5b,6,7,7a,8,11,11a,11 b,12,13,13a,13b-octadecahydro-1H-cyclopenta[a]chrysen-9-yl)-1-(((5-oxo-4,5-dihydro-1,2,4-thiadiazol-3-yl)oxy)methyl)cyclohex-3-ene-1-carboxylic acid]",27,> 50,> 50,> 50
"C=C(C)[C@@H]1CC[C@]2(NCCN3CCS(=O)(=O)CC3)CC[C@]3(C)[C@H](CC[C@@H]4[C@@]5(C)CC=C(C6=CCC(COc7nccs7)(C(=O)O)CC6)C(C)(C)[C@@H]5CC[C@]43C)[C@@H]12 (stereo partly drawn) [Example 15, 4-((1R,3aS,5aR,5bR,7aR,11aS,11bR,13aR,13bR)-3a-((2-(1,1-dioxidothiomorpholino)ethyl)amino)-5a,5b,8,8,11a-pentamethyl-1-(prop-1-en-2-yl)-2,3,3a,4,5,5a,5b,6,7,7a,8,11,11a,11b,12,13,13a,13b-octadecahydro-1H-cyclopenta[a]chrysen-9-yl)-1-((thiazol-2-yloxy)methyl)cyclohex-3-ene-1-carboxylic acid]",4,390,2380,390
C=C(C)[C@@H]1CC[C@]2(NCCN3CCS(=O)(=O)CC3)CC[C@]3(C)[C@H](CC[C@@H]4[C@@]5(C)CC=C(C6=CCC(COc7cnnn7-c7ccccc7)(C(=O)O)CC6)C(C)(C)[C@@H]5CC[C@]43C)[C@@H]12 (some centres unmarked) [Example 16],5,30,32,30
"C=C(C)[C@@H]1CC[C@]2(NCCN3CCS(=O)(=O)CC3)CC[C@]3(C)[C@H](CC[C@@H]4[C@@]5(C)CC=C(C6=CCC(COc7cnnn7C(C)C)(C(=O)O)CC6)C(C)(C)[C@@H]5CC[C@]43C)[C@@H]12 (stereo partly drawn) [Example 17, 4-((1R,3aS,5aR,5bR,7aR,11aS,11bR,13aR,13bR)-3a-((2-(1,1-dioxidothiomorpholino)ethyl)amino)-5a,5b,8,8,11a-pentamethyl-1-(prop-1-en-2-yl)-2,3,3a,4,5,5a,5b,6,7,7a,8,11,11a,11b,12,13,13a,13b-octadecahydro-1H-cyclopenta[a]chrysen-9-yl)-1-(((1-isopropyl-1H-1,2,3-triazol-5-yl)oxy)methyl)cyclohex-3-ene-1-carboxylic acid]",3,15,> 50,15
C=C(C)c1cc(OCC2(C(=O)O)CC=C(C3=CC[C@]4(C)[C@H]5CC[C@@H]6[C@H]7[C@H](C(=C)C)CC[C@]7(NCCN7CCS(=O)(=O)CC7)CC[C@@]6(C)[C@]5(C)CC[C@H]4C3(C)C)CC2)ns1 (some centres unmarked) [Example 18],2,14,11,< 50
"C=C(C)[C@@H]1CC[C@]2(NCCN3CCS(=O)(=O)CC3)CC[C@]3(C)[C@H](CC[C@@H]4[C@@]5(C)CC=C(C6=CCC(COc7cccnn7)(C(=O)O)CC6)C(C)(C)[C@@H]5CC[C@]43C)[C@@H]12 (stereo partly drawn) [Example 19, 4-((1R,3aS,5aR,5bR,7aR,11aS,11bR,13aR,13bR)-3a-((2-(1,1-dioxidothiomorpholino)ethyl)amino)-5a,5b,8,8,11a-pentamethyl-1-(prop-1-en-2-yl)-2,3,3a,4,5,5a,5b,6,7,7a,8,11,11a,11 b,12,13,13a,13b-octadecahydro-1H-cyclopenta[a]chrysen-9-yl)-1-((pyridazin-3-yloxy)methyl)cyclohex-3-ene-1-carboxylic acid]",3,47,36,47
"C=C(C)[C@@H]1CC[C@]2(NCCN3CCS(=O)(=O)CC3)CC[C@]3(C)[C@H](CC[C@@H]4[C@@]5(C)CC=C(C6=CC[C@](COc7ccccn7)(C(=O)O)CC6)C(C)(C)[C@@H]5CC[C@]43C)[C@@H]12 [Example 20, (R)-4-((1R,3aS,5aR,5bR,7aR,11aS,11bR,13aR,13bR)-3a-((2-(1,1-dioxidothiomorpholino)ethyl)amino)-5a,5b,8,8,11a-pentamethyl-1-(prop-1-en-2-yl)-2,3,3a,4,5,5a,5b,6,7,7a,8,11,11a,11b,12,13,13a,13b-octadecahydro-1H-cyclopenta[a]chrysen-9-yl)-1-((pyridin-2-yloxy)methyl)cyclohex-3-ene-1-carboxylic acid]",< 50,< 50,< 50,< 50
C=C(C)[C@@H]1CC[C@]2(NCCN3CCS(=O)(=O)CC3)CC[C@]3(C)[C@H](CC[C@@H]4[C@@]5(C)CC=C(C6=CC[C@](COc7ccncn7)(C(=O)O)CC6)C(C)(C)[C@@H]5CC[C@]43C)[C@@H]12 [Example 21],< 50,> 50,< 50,> 50
C=C(C)[C@@H]1CC[C@]2(NCCN3CCS(=O)(=O)CC3)CC[C@]3(C)[C@H](CC[C@@H]4[C@@]5(C)CC=C(C6=CC[C@](COc7ncccc7Cl)(C(=O)O)CC6)C(C)(C)[C@@H]5CC[C@]43C)[C@@H]12 [Example 22],5,15,8,15
"C=C(C)[C@@H]1CC[C@]2(NCCN3CCS(=O)(=O)CC3)CC[C@]3(C)[C@H](CC[C@@H]4[C@@]5(C)CC=C(C6=CC[C@](COc7ncccc7C#N)(C(=O)O)CC6)C(C)(C)[C@@H]5CC[C@]43C)[C@@H]12 [Example 23, (R)-1-(((3-cyanopyridin-2-yl)oxy)methyl)-4-((1R,3aS,5aR,5bR,7aR,11aS,11bR,13aR,13bR)-3a-((2-(1,1-dioxidothiomorpholino)ethyl)amino)-5a,5b,8,8,11a-pentamethyl-1-(prop-1-en-2-yl)-2,3,3a,4,5,5a,5b,6,7,7a,8,11,11a,11b,12,13,13a,13b-octadecahydro-1H-cyclopenta[a]chrysen-9-yl)cyclohex-3-ene-1-carboxylic acid]",2,6,> 50,< 50
